Measured values published in patent US20230015308A1, “SUBSTITUTED THIAZOLE AROMATIC RING-BASED COMPOUND AND PREPARATION METHOD THEREFOR, HERBICIDAL COMPOSITION AND USE THEREOF” (QINGDAO KINGAGROOT CHEMICAL COMPOUND CO., LTD., priority 2019, published 2023).

How the values were obtained:
Assay in all cases: Weeding effect in post-emergence stage (greenhouse pot test)
Assay type in all cases: in vivo
Conditions in all cases: 15 g a.i./ha, 3 weeks after application
[1] = test system: Abutilon theophrasti
Excerpt: (§1) The activity level criteria for plant damage (i.e., growth control rate) are as follows:
(§2) Level 5: growth control rate is above 85%;
(§3) Level 4: growth control rate is greater than or equal to 60% and less than 85%;
(§4) Level 3: growth control rate is greater than or equal to 40% and less than 60%;
(§5) Level 2: growth control rate is greater than or equal to 20% and less than 40%;
(§6) Level 1: growth control rate is greater than or equal to 5% and less than 20%;
(§7) Level 0: growth control rate is less than 5%.
(§8) The above growth control rates are fresh weight control rates.
(§9) Experiment on weeding effect in post-emergence stage:
(§10) Monocotyledonous and dicotyledonous weed seeds (Descurainia sophia, Capsella bursa-pastoris, Abutilon theophrasti, Galium aparine, Stellaria media, Lithospermum arvense, Rorippa indica, Alopecurus aequalis, Alopecurus japonicus, Beckmannia syzigachne, Sclerochloa dura, Conyza Canadensis, Phleum paniculatum, Veronica didyma Tenore, Eleusine indica, Bromus japonicus, Aegilops tauschii, Phalaris arundinacea, Amaranthus retroflexus, Chenopodium album, Commelina communis, Sonchus arvensis, Convolvulus arvensis, Cirsium setosum, Solanum nigrum, Acalypha australis, Digitaria sanguinalis, Echinochloa crusgalli, Setaria viridis, Setaria glauca, Leptochloa chinensis, Monochoria vaginalis, Sagittaria trifolia, Scirpus juncoides, Cyperus rotundus, Cyperus iria, Cyperus difformis, Fimbristylis, Portulaca oleracea, Xanthium sibiricum, Pharbitis nil) and major crop seeds (wheat, corn, rice, soybean, cotton, oilseed rape, millet, sorghum, potato, sesame, ricinus) were placed in plastic pots filled with soil, then covered with 0.5-2 cm of soil, allowed to grow in a good greenhouse environment. After 2 weeks of sowing, the test plants were treated in the 2-3 leaf stage. The tested compounds of the present invention were respectively dissolved in acetone, then added with Tween 80 and 1.5 liter/ha of emulsifiable concentrate of methyl oleate as synergist, diluted with a certain amount of water to obtain a solution with a certain concentration, and sprayed with a spray tower onto the plants. After the application, the plants were cultured for 3 weeks in the greenhouse, and then the experimental results of the weeding were counted. The doses of the used compounds were 500, 250, 125, 60, 15 g a.i./ha, and the averages were obtained by repeating for three times.

[2] = test system: Alopecurus japonicus
Excerpt: as §1, §2, §3, §4, §5, §6, §7, §8, §9, §10

[3] = test system: Amaranthus retroflexus
Excerpt: as §1, §2, §3, §4, §5, §6, §7, §8, §9, §10

[4] = test system: Beckmannia syzigachne
Excerpt: as §1, §2, §3, §4, §5, §6, §7, §8, §9, §10

[5] = test system: Digitaria sanguinalis
Excerpt: as §1, §2, §3, §4, §5, §6, §7, §8, §9, §10

[6] = test system: Echinochloa crusgalli
Excerpt: as §1, §2, §3, §4, §5, §6, §7, §8, §9, §10

[7] = test system: Galium aparine
Excerpt: as §1, §2, §3, §4, §5, §6, §7, §8, §9, §10

[8] = test system: Setaria viridis
Excerpt: as §1, §2, §3, §4, §5, §6, §7, §8, §9, §10

[9] = test system: Veronica didyma Tenore
Excerpt: as §1, §2, §3, §4, §5, §6, §7, §8, §9, §10

Row | SMILES | Abutilon theophrasti, activity level (fresh weight growth control rate) [1] | Alopecurus japonicus, activity level (fresh weight growth control rate) [2] | Amaranthus retroflexus, activity level (fresh weight growth control rate) [3] | Beckmannia syzigachne, activity level (fresh weight growth control rate) [4] | Digitaria sanguinalis, activity level (fresh weight growth control rate) [5] | Echinochloa crusgalli, activity level (fresh weight growth control rate) [6] | Galium aparine, activity level (fresh weight growth control rate) [7] | Setaria viridis, activity level (fresh weight growth control rate) [8] | Veronica didyma Tenore, activity level (fresh weight growth control rate) [9]
1 | CCOC(=O)c1cnc(-c2cc(-n3c(=S)cc(C(F)(F)F)n(C)c3=O)c(F)cc2Cl)s1 [1-103] | 5 (Level 5: growth control rate is above 85%) | 4 (Level 4: growth control rate is greater than or equal to 60% and less than 85%) | 5 (Level 5: growth control rate is above 85%) | 4 (Level 4: growth control rate is greater than or equal to 60% and less than 85%) | 5 (Level 5: growth control rate is above 85%) | 5 (Level 5: growth control rate is above 85%) | 5 (Level 5: growth control rate is above 85%) | 5 (Level 5: growth control rate is above 85%) | 5 (Level 5: growth control rate is above 85%)
2 | CCOC(=O)c1cnc(-c2nc(-n3c(=O)cc(C(F)(F)F)n(C)c3=O)c(F)cc2Cl)s1 [1-107] | 5 (Level 5: growth control rate is above 85%) | 5 (Level 5: growth control rate is above 85%) | 5 (Level 5: growth control rate is above 85%) | 5 (Level 5: growth control rate is above 85%) | 5 (Level 5: growth control rate is above 85%) | 5 (Level 5: growth control rate is above 85%) | 5 (Level 5: growth control rate is above 85%) | 5 (Level 5: growth control rate is above 85%) | 5 (Level 5: growth control rate is above 85%)
3 | CCOC(=O)c1cnc(-c2cc(-n3c(=O)n(C)c(=S)n(C)c3=O)c(F)cc2Cl)s1 [1-113] | 5 (Level 5: growth control rate is above 85%) | 4 (Level 4: growth control rate is greater than or equal to 60% and less than 85%) | 5 (Level 5: growth control rate is above 85%) | 4 (Level 4: growth control rate is greater than or equal to 60% and less than 85%) | 4 (Level 4: growth control rate is greater than or equal to 60% and less than 85%) | 5 (Level 5: growth control rate is above 85%) | 5 (Level 5: growth control rate is above 85%) | 5 (Level 5: growth control rate is above 85%) | 5 (Level 5: growth control rate is above 85%)
4 | CCOC(=O)c1cnc(-c2nc(-n3c(=O)n(C)c(=S)n(C)c3=O)c(F)cc2Cl)s1 [1-123] | 5 (Level 5: growth control rate is above 85%) | 5 (Level 5: growth control rate is above 85%) | 5 (Level 5: growth control rate is above 85%) | 5 (Level 5: growth control rate is above 85%) | 5 (Level 5: growth control rate is above 85%) | 5 (Level 5: growth control rate is above 85%) | 5 (Level 5: growth control rate is above 85%) | 5 (Level 5: growth control rate is above 85%) | 5 (Level 5: growth control rate is above 85%)
